Measurements from ChEMBL document CHEMBL2010725, “Synthesis and Cardiac Imaging of (18)F-Ligands Selective for β1-Adrenoreceptors” (ACS Med Chem Lett, 2011).

Tests used:
Liver [1] = assay: Drug uptake in Sprague-Dawley rat liver at 1 mCi after 60 mins by microPET analysis; format: ADME, tissue-based; conditions: in vivo, 1 h
Blood = assay: Biodistribution in Sprague-Dawley rat blood at 15 uCi after 30 mins by gamma counting; format: ADME, organism-based; conditions: in vivo, 0.5 h
Rattus norvegicus [2] = assay: Drug metabolism in rat assessed as progressive loss of parent compound at 1 mCi/kg, iv after 2 mins by HPLC analysis; format: ADME, organism-based; conditions: in vivo
[3] = Drug uptake in Sprague-Dawley rat myocardium at 1 mCi after 30 mins by microPET analysis; format: ADME, tissue-based; conditions: in vivo, 0.5 h
Heart = assay: Biodistribution in Sprague-Dawley rat heart at 15 uCi after 30 mins by gamma counting; format: ADME, organism-based; conditions: in vivo, 0.5 h
[4] = Ratio of drug level in lung to heart in Sprague-Dawley rat at 15 uCi after 30 mins by gamma counting; conditions: in vivo, 0.5 h
Lung [5] = assay: Drug uptake in Sprague-Dawley rat lung after <5 mins by microPET analysis; format: ADME, tissue-based; conditions: in vivo
[6] = Drug uptake in Sprague-Dawley rat myocardium at 1 mCi after 60 mins by microPET analysis; format: ADME, tissue-based; conditions: in vivo, 1 h
[7] = Drug excretion in rat urine assessed as parent compound at 1 mCi/kg, iv after 30 mins by HPLC analysis; format: ADME, organism-based; conditions: read-out: Drug excretion
Liver [8] = assay: Drug uptake in Sprague-Dawley rat liver at 1 mCi after 30 mins by microPET analysis; format: ADME, tissue-based; conditions: in vivo, 0.5 h
Rattus norvegicus [9] = assay: Drug metabolism in rat assessed as progressive loss of parent compound at 1 mCi/kg, iv after 30 mins by HPLC analysis; format: ADME, organism-based; conditions: in vivo, 0.5 h
Liver [10] = assay: Drug uptake in Sprague-Dawley rat liver after <5 mins by microPET analysis; format: ADME; conditions: in vivo
Muscle tissue = assay: Biodistribution in Sprague-Dawley rat muscle at 15 uCi after 30 mins by gamma counting; format: ADME, organism-based; conditions: in vivo, 0.5 h
Spleen = assay: Biodistribution in Sprague-Dawley rat spleen at 15 uCi after 30 mins by gamma counting; format: ADME, organism-based; conditions: in vivo, 0.5 h
Liver [11] = assay: Biodistribution in Sprague-Dawley rat liver at 15 uCi after 30 mins by gamma counting; format: ADME, organism-based; conditions: in vivo, 0.5 h
Kidney = assay: Biodistribution in Sprague-Dawley rat kidney at 15 uCi after 30 mins by gamma counting; format: ADME, organism-based; conditions: in vivo, 0.5 h
Femur = assay: Biodistribution in Sprague-Dawley rat femur at 15 uCi after 30 mins by gamma counting; format: ADME, organism-based; conditions: in vivo, 0.5 h
Lung [12] = assay: Biodistribution in Sprague-Dawley rat lung at 15 uCi after 30 mins by gamma counting; format: ADME, organism-based; conditions: in vivo, 0.5 h
[13] = Drug uptake in Sprague-Dawley rat myocardium after <5 mins by microPET analysis; format: ADME, tissue-based; conditions: in vivo
[14] = target: Beta-1 adrenergic receptor (Homo sapiens, UniProt P08588); assay: Displacement of [3H](-)-CGP-12177 from adrenergic beta1 receptor by cell based assay
[15] = Selectivity ratio of IC50 for adrenergic beta2 receptor to IC50 for adrenergic beta1 receptor

Sequence of Beta-1 adrenergic receptor (P08588 whole entry): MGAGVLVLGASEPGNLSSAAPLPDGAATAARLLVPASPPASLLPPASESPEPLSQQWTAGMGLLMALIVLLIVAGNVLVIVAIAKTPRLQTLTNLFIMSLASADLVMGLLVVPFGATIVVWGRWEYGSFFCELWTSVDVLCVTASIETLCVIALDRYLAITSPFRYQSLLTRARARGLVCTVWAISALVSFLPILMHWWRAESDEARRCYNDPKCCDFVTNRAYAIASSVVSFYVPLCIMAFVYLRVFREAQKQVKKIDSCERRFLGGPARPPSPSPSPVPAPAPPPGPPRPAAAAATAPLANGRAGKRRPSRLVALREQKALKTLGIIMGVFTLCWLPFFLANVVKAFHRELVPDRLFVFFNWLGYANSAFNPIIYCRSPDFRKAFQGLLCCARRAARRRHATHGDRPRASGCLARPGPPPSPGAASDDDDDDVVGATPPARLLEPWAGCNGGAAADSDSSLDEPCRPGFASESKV

Compound	IC50 [14] [nM]	Ratio IC50 [15]	other results
N#Cc1ccccc1OC[C@@H](O)CNCCNC(=O)Nc1cccc(OCC[18F])c1	–	–	Drug uptake (Liver [1]): Not Active; Drug uptake (Blood): 0.14 % ID/g; Drug metabolism (Rattus norvegicus [2]): 83%; Drug uptake [3]: Active; Drug uptake (Heart): 0.62 % ID/g; Ratio [4]: 1.27; Drug uptake (Lung [5]): Active; Drug uptake [6]: Not Active; dose excreted at 0.5 h [7]: 76%; Drug uptake (Liver [8]): Active; Drug metabolism (Rattus norvegicus [9]): 44%; Drug uptake (Liver [10]): Active; Drug uptake (Muscle tissue): 0.1 % ID/g; Drug uptake (Spleen): 0.52 % ID/g; Drug uptake (Liver [11]): 1.14 % ID/g; Drug uptake (Kidney): 2.01 % ID/g; Drug uptake (Femur): 0.16 % ID/g; Drug uptake (Lung [12]): 0.79 % ID/g; Drug uptake [13]: Active
N#Cc1ccccc1OC[C@@H](O)CNCCNC(=O)Nc1nnn(CCF)n1	10	10	–
N#Cc1ccccc1OC[C@@H](O)CNCCNC(=O)NC1CCN(CCF)CC1	> 100	0.05	–
N#Cc1ccccc1OC[C@@H](O)CNCCNS(=O)(=O)c1ccccc1F	5	0.1	–
N#Cc1ccccc1OC[C@@H](O)CNCCNC(=O)Nc1ccc(OCCF)cc1	0.08	448	–
N#Cc1ccccc1OC[C@@H](O)CNCCNC(=O)N1CCOCC1	20	4	–
CCOc1ccc(NC(=O)NCCNC[C@H](O)COc2cccc(F)c2C#N)cc1	2	32	–
CC(CF)Nc1ccc(NC(=O)NCCNC[C@H](O)COc2ccccc2C#N)cc1 (stereo partly drawn)	1.5	13	–
N#Cc1ccccc1OC[C@@H](O)CNCCNC(=O)Cc1ccc(F)cc1	0.14	6	–
N#Cc1ccccc1OC[C@@H](O)CNCCNC(=O)Nc1ccc(OCCC[18F])cc1	–	–	Drug uptake (Liver [1]): Not Active; Drug uptake (Blood): 0.21 % ID/g; Drug uptake [3]: Active; Drug uptake (Heart): 0.42 % ID/g; Ratio [4]: 1.5; Drug uptake [6]: Not Active; Drug uptake (Liver [8]): Active; Drug uptake (Muscle tissue): 0.09 % ID/g; Drug uptake (Spleen): 0.4 % ID/g; Drug uptake (Liver [11]): 1.03 % ID/g; Drug uptake (Kidney): 1.38 % ID/g; Drug uptake (Femur): 0.63 % ID/g; Drug uptake (Lung [12]): 0.63 % ID/g
N#Cc1ccccc1OC[C@@H](O)CNCCNC(=O)Nc1ccc(OCC[18F])cc1	–	–	Drug uptake (Liver [1]): Not Active; Drug uptake (Blood): 0.18 % ID/g; Drug uptake [3]: Active; Drug uptake (Heart): 0.48 % ID/g; Ratio [4]: 2; Drug uptake [6]: Not Active; Drug uptake (Liver [8]): Active; Drug uptake (Muscle tissue): 0.08 % ID/g; Drug uptake (Spleen): 0.37 % ID/g; Drug uptake (Liver [11]): 1.14 % ID/g; Drug uptake (Kidney): 1.26 % ID/g; Drug uptake (Femur): 0.27 % ID/g; Drug uptake (Lung [12]): 0.97 % ID/g
N#Cc1ccccc1OC[C@@H](O)CNCCNC(=O)Nc1ccccc1F	0.2	69	–
N#Cc1ccccc1OC[C@@H](O)CNCCNC(=O)Nc1ccc(OCCCF)cc1	0.25	65	–
N#Cc1ccccc1OC[C@@H](O)CNCCNC(=O)Nc1nccs1	26	8	–
N#Cc1c(F)cccc1OC[C@@H](O)CNCCNC(=O)Nc1ccc(C(=O)O)cc1	21	164	–
N#Cc1ccc(F)cc1OC[C@@H](O)CNCCNC(=O)Nc1ccc(C(=O)O)cc1	2	70	–
N#Cc1ccccc1OC[C@@H](O)CNCCCC(=O)Nc1ccc(F)nc1	3	30	–
N#Cc1ccccc1OC[C@@H](O)CNCCNC(=O)c1ccc(F)nc1	10	4	–
N#Cc1ccccc1OC[C@@H](O)CNCCNC(=O)Nc1ccc(C(=O)O)c(F)c1	1	511	–

More lines, main results first:

IC50 [14] [nM]	Ratio IC50 [15]	Compound	other results
0.1	50	N#Cc1ccccc1OC[C@@H](O)CNCCNC(=O)Nc1ccc(OCCF)nc1	–
0.05	> 1000	N#Cc1ccccc1OC[C@@H](O)CNCCNC(=O)Nc1ccc(Br)nc1	–
0.3	345	N#Cc1ccccc1OC[C@@H](O)CNCCNC(=O)Nc1ccc(F)nc1	–
0.11	145	COc1ccc(NC(=O)NCCNC[C@H](O)COc2ccccc2C#N)cc1	–
0.05	723	N#Cc1ccccc1OC[C@@H](O)CNCCNC(=O)Nc1ccc(I)nc1	–
0.04	265	N#Cc1ccccc1OC[C@@H](O)CNCCNC(=O)Nc1cccc(OCCF)c1	–
0.35	163	N#Cc1ccccc1OC[C@@H](O)CNCCNC(=O)Nc1cnc(Br)cn1	–
0.1	150	N#Cc1ccccc1OC[C@@H](O)CNCCNC(=O)Nc1ccc(F)cc1	–
